Measurements: the supplement of paper PMC11451515

System: NOMO1
Assay: cell viability relative to DMSO control; higher = less cytotoxic
Conditions: 48 h
In short: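 Library compounds in DMSO were pin-dosed in an 11-point threefold series (47 μM to 0.79 nM) onto leukemia cells in 1536-well plates (5 μl). Plates held 500 cells/well of NOMO1 or SEM or 1000 cells/well of P12-Ichikawa, each adapted for at least four passages in each medium. Luminescence was read with CellTiter-Glo One after 48 h at 37°C. Viability means the per-plate percentage relative to DMSO wells, using cell-free wells as background.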

[1] = HPLM + 10% dialyzed FBS, 0.000781 µM
[2] = HPLM + 10% dialyzed FBS, 0.00234 µM
[3] = HPLM + 10% dialyzed FBS, 0.00702 µM
[4] = HPLM + 10% dialyzed FBS, 0.0211 µM
[5] = HPLM + 10% dialyzed FBS, 0.0632 µM
[6] = HPLM + 10% dialyzed FBS, 0.19 µM
[7] = HPLM + 10% dialyzed FBS, 0.569 µM
[8] = HPLM + 10% dialyzed FBS, 1.71 µM
[9] = HPLM + 10% dialyzed FBS, 5.12 µM
[10] = HPLM + 10% dialyzed FBS, 15.4 µM
[11] = HPLM + 10% dialyzed FBS, 46.1 µM
[12] = RPMI 5 mM glucose + 10% FBS, 0.000781 µM
[13] = RPMI 5 mM glucose + 10% FBS, 0.00234 µM
[14] = RPMI 5 mM glucose + 10% FBS, 0.00702 µM
[15] = RPMI 5 mM glucose + 10% FBS, 0.0211 µM
[16] = RPMI 5 mM glucose + 10% FBS, 0.0632 µM
[17] = RPMI 5 mM glucose + 10% FBS, 0.19 µM
[18] = RPMI 5 mM glucose + 10% FBS, 0.569 µM
[19] = RPMI 5 mM glucose + 10% FBS, 1.71 µM
[20] = RPMI 5 mM glucose + 10% FBS, 5.12 µM
[21] = RPMI 5 mM glucose + 10% FBS, 15.4 µM
[22] = RPMI 5 mM glucose + 10% FBS, 46.1 µM
[23] = RPMI 5 mM glucose + 10% dialyzed FBS, 0.000781 µM
[24] = RPMI 5 mM glucose + 10% dialyzed FBS, 0.00234 µM
[25] = RPMI 5 mM glucose + 10% dialyzed FBS, 0.00702 µM
[26] = RPMI 5 mM glucose + 10% dialyzed FBS, 0.0211 µM
[27] = RPMI 5 mM glucose + 10% dialyzed FBS, 0.0632 µM
[28] = RPMI 5 mM glucose + 10% dialyzed FBS, 0.19 µM
[29] = RPMI 5 mM glucose + 10% dialyzed FBS, 0.569 µM
[30] = RPMI 5 mM glucose + 10% dialyzed FBS, 1.71 µM
[31] = RPMI 5 mM glucose + 10% dialyzed FBS, 5.12 µM
[32] = RPMI 5 mM glucose + 10% dialyzed FBS, 15.4 µM
[33] = RPMI 5 mM glucose + 10% dialyzed FBS, 46.1 µM

Row | SMILES | cell viability [1] [%] | cell viability [2] [%] | cell viability [3] [%] | cell viability [4] [%] | cell viability [5] [%] | cell viability [6] [%] | cell viability [7] [%] | cell viability [8] [%] | cell viability [9] [%] | cell viability [10] [%] | cell viability [11] [%] | cell viability [12] [%] | cell viability [13] [%] | cell viability [14] [%] | cell viability [15] [%] | cell viability [16] [%] | cell viability [17] [%] | cell viability [18] [%] | cell viability [19] [%] | cell viability [20] [%] | cell viability [21] [%] | cell viability [22] [%] | cell viability [23] [%] | cell viability [24] [%] | cell viability [25] [%] | cell viability [26] [%] | cell viability [27] [%] | cell viability [28] [%] | cell viability [29] [%] | cell viability [30] [%] | cell viability [31] [%] | cell viability [32] [%] | cell viability [33] [%]
1 | Cc1ccc(NC(=O)c2ccc(CN3CCN(C)CC3)cc2)cc1Nc1nccc(-c2cccnc2)n1 | 95.2 | 105 | 114 | 116 | 110 | 116 | 105 | 122 | 104 | 95.4 | 109 | 90.6 | 103 | 92.3 | 112 | 120 | 99.6 | 114 | 111 | 104 | 103 | 103 | 96.2 | 100 | 111 | 101 | 105 | 103 | 110 | 94 | 115 | 104 | 117
2 | O=C/1\C=C(/OC(=C1)/C2=C3SC4=C(SC3=CC=C2)C=CC=C4)N5CCOCC5 | 93.3 | 94.6 | 103 | 32.3 | 112 | 103 | 122 | 105 | 84 | 90.1 | 82 | 79.8 | 93.2 | 91.1 | 19.4 | 92 | 91.9 | 94.7 | 96.7 | 89.1 | 89.3 | 90.3 | 81.3 | 93.6 | 98.1 | 33.1 | 88.2 | 104 | 107 | 99.3 | 83.7 | 81.2 | 86.2
3 | Cc1cc2c(C(C)C)c(O)c(O)c(C=O)c2c(O)c1-c1c(C)cc2c(C(C)C)c(O)c(O)c(C=O)c2c1O | 122 | 123 | 135 | 137 | 115 | 107 | 116 | 105 | 105 | 100 | 50.8 | 100 | 116 | 104 | 109 | 107 | 106 | 115 | 97.1 | 98.5 | 92.8 | 12 | 115 | 115 | 114 | 121 | 114 | 102 | 103 | 106 | 110 | 94.6 | 27.5
4 | CN1CCCN(C(=O)c2cccc(-c3ccc(/C=C4/C(=O)Nc5ccc(Cl)cc54)o3)c2)CC1 | 134 | 118 | 120 | 124 | 112 | 102 | 109 | 103 | 91.8 | 96.7 | 66.1 | 124 | 107 | 108 | 110 | 98.3 | 109 | 94.4 | 96.1 | 99.4 | 85.8 | 47.4 | 111 | 112 | 109 | 107 | 111 | 109 | 104 | 96.2 | 85.6 | 94.5 | 60
5 | CC[C@H]1OC(=O)[C@H](C)[C@@H](O[C@H]2C[C@@](C)(OC)[C@@H](O)[C@H](C)O2)[C@H](C)[C@@H](O[C@@H]2O[C@@H](C)C[C@H](N(C)C)[C@H]2O)[C@](C)(O)C[C@@H](C)C(=O)[C@H](C)[C@@H](O)[C@]1(C)O | 86.3 | 80.4 | 97.4 | 93 | 105 | 105 | 108 | 87 | 80.9 | 63.4 | 56.7 | 77.5 | 81 | 79.8 | 94.9 | 91.8 | 92.1 | 88.8 | 84.9 | 81 | 88.8 | 55 | 77.8 | 90.3 | 91 | 91.6 | 102 | 86.8 | 93.3 | 101 | 90.3 | 95.3 | 51.8
6 | O=C(NC1CCNCC1)c1n[nH]cc1NC(=O)c1c(Cl)cccc1Cl | 114 | 110 | 123 | 128 | 126 | 127 | 112 | 23.5 | 7.29 | 5.85 | 3.89 | 112 | 110 | 110 | 104 | 112 | 115 | 111 | 33.9 | 9.78 | 7.73 | 3.45 | 116 | 116 | 115 | 113 | 117 | 107 | 98.1 | 35.8 | 7.61 | 7.43 | 3.85
7 | Cl.c1cnc2cc3c(cc2n1)C1CNCC3C1 | 107 | 109 | 110 | 103 | 129 | 126 | 135 | 124 | 124 | 122 | 92 | 101 | 105 | 113 | 107 | 112 | 110 | 118 | 104 | 111 | 110 | 79.4 | 99.3 | 98.2 | 105 | 114 | 107 | 121 | 116 | 109 | 103 | 108 | 62.8
8 | FC(F)(F)c1ccc(Nc2nc3cc(Oc4ccnc(-c5ncc(C(F)(F)F)[nH]5)c4)ccc3[nH]2)cc1 |  |  |  |  |  |  |  |  |  |  |  |  |  |  |  |  |  |  |  |  |  |  | 109 | 124 | 136 | 133 | 136 | 132 | 131 | 145 | 130 | 148 | 89.3
9 | O=C(O)[C@H](Cc1c[nH]c2ccccc12)N1C(=O)c2ccccc2C1=O | 96.1 | 107 | 103 | 99.4 | 110 | 91.5 | 90.8 | 103 | 119 | 99.6 | 117 | 89.8 | 83.3 | 97 | 89.1 | 87.9 | 80.8 | 89.3 | 97.1 | 90.4 | 92.3 | 86.1 | 92.5 | 99.1 | 104 | 101 | 98.7 | 94.1 | 100 | 101 | 103 | 99.6 | 83.3
10 | COc1cc(N2CCC(O)CC2)ccc1Nc1cc(Nc2ccccc2[S+](=O)([O-])C(C)C)c2cc[nH]c2n1 | 105 | 131 | 64.6 | 53.7 | 96.5 | 96.3 | 89 | 79 | 74.1 | 62.1 | 65.6 | 91.7 | 92.6 | 84.6 | 84.9 | 98.7 | 84.4 | 92.4 | 86.6 | 87.6 | 74 | 71.9 | 90.4 | 83.4 | 97.3 | 100 | 101 | 87.8 | 63.4 | 84.7 | 87.5 | 67 | 67.1
11 | COC(=O)N1CCN(Cc2cccc(NC(=O)Nc3ccc(C)nc3)c2F)CC1 | 115 | 111 | 111 | 104 | 104 | 100 | 100 | 101 | 102 | 82.4 | 81.9 | 98.5 | 98.8 | 95.2 | 98.8 | 95.7 | 85.7 | 103 | 84.2 | 84.1 | 77.2 | 77.6 | 91.9 | 92.4 | 105 | 104 | 99.6 | 93.5 | 85.6 | 84 | 78.1 | 83.7 | 81.5
12 | O=C(Nc1ccc(OC(F)(F)F)cc1)c1sccc1NCc1ccnc2ccccc12 | 118 | 109 | 127 | 123 | 109 | 110 | 80.1 | 43.1 | 33.4 | 33.8 | 41.4 | 118 | 101 | 117 | 121 | 112 | 105 | 108 | 96 | 52.8 | 22.6 | 25.3 | 105 | 106 | 113 | 117 | 107 | 109 | 116 | 91.6 | 57 | 28 | 36.1
13 | O=C1NC(=O)[C@@H](c2cn3c4c(cccc24)CCC3)[C@@H]1c1c[nH]c2ccccc12 | 95.9 | 99.3 | 98.2 | 104 | 107 | 89.3 | 89.8 | 62.9 | 29.7 | 36.4 | 20.6 | 104 | 116 | 115 | 99.5 | 108 | 104 | 110 | 68.6 | 21.1 | 20.8 | 20.5 | 93.1 | 91.3 | 96.2 | 98.7 | 106 | 98.3 | 114 | 80 | 22.4 | 28.5 | 29
14 | Cc1[nH]c(/C=C2\C(=O)Nc3ccc([S+](=O)([O-])N(C)c4cccc(Cl)c4)cc32)c(C)c1C(=O)N1CCN(C)CC1 | 114 | 131 | 123 | 103 | 119 | 99.2 | 115 | 120 | 109 | 103 | 10.1 |  |  |  |  |  |  |  |  |  |  |  |  |  |  |  |  |  |  |  |  |  | 
